Data reported in US8101180B2, “Anti-IGF-IR and/or anti-insulin/IGF-I hybrid receptors antibodies and uses thereof” (Pierre Fabre Medicament, priority 2002, dated 2012).

How the values were obtained:
A549 tumor = assay: A549 non-small cell lung tumor subcutaneous xenograft; format: in vivo, nude mice; conditions: RDV, SDV […], 4 i.p. injections 7 days apart; conjugates […] agent and 250 μg/dose antibody
Method: Navelbine is a chemotherapy compound indicated in non-small cell cancer of the lung and in metastatic cancer of the breast. […] For this study, 5·10^6 A549 cells were grafted subcutaneously on the right flank of the mouse. Five days after the cell graft, the tumors are measurable and the treatments with MAb and/or navelbine are commenced. The MAb dose is always 250 μg/dose/mouse, twice per week, intra-peritoneally. Concerning navelbine, it will be administered at the maximum dose tolerated by the mouse or 10 mg/kg, intraperitoneally. For this treatment three injections will be carried out at intervals of 7 days. During the coadministrations, the two products are mixed before injection.
For this study, nude mice are grafted s.c. with 5·10^6 A549 cells. Five days after the cell graft, the tumors are measured and a homogeneous batch of mice in terms of tumor volume is formed. Starting from this batch, groups of 6 mice are generated at random.
To do this, 5·10^6 A549 cells were implanted subcutaneously in nude mice. Five days after this implantation, the tumors were measured and groups of 6 mice were formed. […] This granule is essential to the establishment of any E2-dependent human tumor in this animal species.
These conjugates are administered according to the same modes as the groups given the chemotherapy compounds alone; • the animals of the control batch are given injections of PBS, administered according to the same frequency.
The weight of the mice and the tumor volume are evaluated twice a week. The tumor volumes are calculated according to the formula: ½ (length·width·height).

P388 murine leukemia = P388 murine leukemia grafted intravenously, survival (T/C); format: in vivo, CDF1 mice
Method: The compound is administered intraperitoneally in a single dose on day 1. The protocol for this test is described by Kruczynski A. et al., Cancer Chemotherapy and Pharmacology, 1998, volume 41, pages 437 to 447.
Conventionally, the in vivo activity of cytotoxic compounds is expressed by the T/C at a dose expressed in mg per kg. The T/C corresponds to the ratio, multiplied by 100, of the median of the survival time of the treated animals to the median of the survival time of the control animals.
The protocol for this test is described by Kruczynski A. et al., Cancer Chemotherapy and Pharmacology, 1998, volume 41, pages 437 to 447.
To do this, a total of 10^6 P388 murine leukemia cells were implanted i.v. in CDF1 mice on day 0. After randomization of the animals in cages for treatment with each alkaloid and control cages, the compounds were administered i.p. on day 1.
Conventionally, the in vivo activity of compounds is expressed by the increase in survival time. The survival time is expressed by the T/C at a dose expressed in mg per kg (mg/kg). The T/C corresponds to the ratio, multiplied by 100, of the median of the survival time of the treated animals to the median of the survival time of the control animals. In agreement with the standard criteria of the NCl, a T/C of 120 corresponds to a minimum level for concluding that activity is present.
A T/C below 75 expresses toxicity of the test compound at the dose administered.

MCF-7 cells [1] = assay: Apoptosis of MCF-7 cells (Annexin V-FITC/DAPI flow cytometry); format: cell-based, human; conditions: doxorubicin 2 μg/ml, 24 hours, IGF-I 50 ng/ml
Method: As indicated above, IGF-IR is capable of conferring protection against apoptosis when it is overexpressed on the surface of cells. […] In these experiments, the MCF-7 cells are inoculated at 2·10^4/cm^2 in Petri dishes and cultured for 24 h in RPMI without phenol red supplemented with 10% of fetal calf serum (FCS). The cells are then washed twice with PBS and put back into culture in medium with 0% FCS. They are allowed an adaptation time of 10 minutes at 37° C. before the addition of the antibodies at 10 μg/ml. After an extra 10 minutes at 37° C., recombinant IGF-I (Sigma) is added to the culture medium to a final concentration of 50 ng/ml. The cells are left at 37° C. again for one hour in order to allow the attachment of the antibodies and of the IGF-I. Finally, the doxorubicin (Sigma) is added to the culture medium at 2 μg/ml and the cells are incubated for 24 hours at 37° C.
The experiments have likewise been conducted with navelbine at a concentration of 10 μg/ml.
The analysis of the cell viability is carried out by flow cytometric analysis after labeling with the annexin V-FITC (20 minutes, 4° C.) and DAPI (2 μg/ml). The percentage of dead cells considered is the labeled population Annexin+/DAPI+. The antibody 5C2 is used as a control isotype.

MCF-7 cells [2] = assay: Cell cycle of MCF-7 cells with IGF1; format: cell-based, human
Method: The inhibition of the cell growth observed in vitro on the line MCF-7 should be manifested by an effect on the cell cycle. In order to reply to this question, 4·10^5 cells are inoculated into 6-well plates. […] After incubation for 24 hours, the cells are recovered for the study of the cell cycle.

[3] = dose 0.63 mg/kg i.p. single dose day 1, T/C = median survival treated/control ×100, below 75 = toxicity
[4] = dose 1.25 mg/kg i.p. single dose day 1
[5] = dose 5 mg/kg i.p. single dose day 1
[6] = dose 10 mg/kg i.p. single dose day 1
[7] = after addition of IGF1, 24 hours ([…] in the absence of IGF1)

CCC1CC2CN(CCc3c([nH]c4ccccc34)[C@@](C(=O)OC)(c3cc4c(cc3OC)N(C)[C@H]3C(O)(C(=O)OC)[C@H](OC(C)=O)[C@]5(CC)C=CCN6CC[C@]43[C@@H]65)C2)C1 (stereo partly drawn) [4′-R-deoxyvinblastine, 4′-R deoxyvinblastine]
A549 tumor growth, deoxyvinblastines alone or coupled to h7C10 (A549 tumor): evolve in the same manner as the control group | T/C (P388 murine leukemia; [3]): 100 | T/C (P388 murine leukemia; [4]): 100 | T/C (P388 murine leukemia; [5]): 143 | T/C (P388 murine leukemia; [6]): 200 | T/C (P388 murine leukemia; dose 20 mg/kg i.p. single dose day 1): 214 | T/C (P388 murine leukemia; dose 40 mg/kg i.p. single dose day 1): 43

CC[C@@H]1C[C@@H]2CN(CCc3c([nH]c4ccccc34)[C@@](C(=O)OC)(c3cc4c(cc3OC)N(C)[C@H]3[C@@](O)(C(=O)OC)[C@H](OC(C)=O)[C@]5(CC)C=CCN6CC[C@]43[C@@H]65)C2)C1 [4′-S-deoxyvinblastine, 4′-S deoxyvinblastine]
A549 tumor growth, deoxyvinblastines alone or coupled to h7C10 (A549 tumor): evolve in the same manner as the control group | T/C (P388 murine leukemia; [3]): 114 | T/C (P388 murine leukemia; [4]): 143 | T/C (P388 murine leukemia; [5]): 100 | T/C (P388 murine leukemia; [6]): 57

COc1cccc2c1C(=O)c1c(O)c3c(c(O)c1C2=O)C[C@@](O)(C(=O)CO)C[C@@H]3O[C@H]1C[C@H](N)[C@H](O)[C@H](C)O1 [doxorubicin, reference compound]
apoptosis, percentage of MCF-7 cells (MCF-7 cells [1]): 8%

CC[C@]1(O)C[C@@H]2CN(CCc3c([nH]c4ccccc34)[C@@](C(=O)OC)(c3cc4c(cc3OC)N(C)[C@H]3[C@@](O)(C(=O)OC)[C@H](OC(C)=O)[C@]5(CC)C=CCN6CC[C@]43[C@@H]65)C2)C1 [vinblastine, reference compound]
T/C (P388 murine leukemia; [3]): 114 | T/C (P388 murine leukemia; [4]): 114 | T/C (P388 murine leukemia; [5]): 143 | T/C (P388 murine leukemia; [6]): 57

CC[C@]1(O)C[C@H]2CN(CCc3c([nH]c4ccccc34)[C@@](C(=O)OC)(c3cc4c(cc3OC)N(C=O)[C@H]3[C@@](O)(C(=O)OC)[C@H](OC(C)=O)[C@]5(CC)C=CCN6CC[C@]43[C@@H]65)C2)C1 [vincristine, reference compound]
T/C (P388 murine leukemia; [3]): 114 | T/C (P388 murine leukemia; [4]): 143 | T/C (P388 murine leukemia; [5]): 100 | T/C (P388 murine leukemia; [6]): 57

IGF1: insulin-like growth factor 1, native ligand of IGF-IR
proportion of MCF-7 cells in G2/M phase (MCF-7 cells [2]; after addition of IGF1, 24 hours (4% in the absence of IGF1)): 12.7% | proportion of MCF-7 cells in G0/G1 phase (MCF-7 cells [2]; [7]): 56.3% | proportion of MCF-7 cells in S phase (MCF-7 cells [2]; [7]): 31%
